The values below come from ChEMBL document CHEMBL5244208, “Privileged scaffolds as MAO inhibitors: Retrospect and prospects” (Eur J Med Chem, 2018).

Molecules are shown by their SMILES. “And” between values parts separate entries of the source, which are not always exact repeats. Identical values can stand only once.

The target in the first series is Acetylcholinesterase (Homo sapiens, UniProt P22303). In words: Inhibition of AChE (unknown origin) using acetylthiocholine chloride as substrate incubated for 5 mins by DTNB reagent based Ellman's method.
Acetylcholinesterase, sequence (P22303 whole entry): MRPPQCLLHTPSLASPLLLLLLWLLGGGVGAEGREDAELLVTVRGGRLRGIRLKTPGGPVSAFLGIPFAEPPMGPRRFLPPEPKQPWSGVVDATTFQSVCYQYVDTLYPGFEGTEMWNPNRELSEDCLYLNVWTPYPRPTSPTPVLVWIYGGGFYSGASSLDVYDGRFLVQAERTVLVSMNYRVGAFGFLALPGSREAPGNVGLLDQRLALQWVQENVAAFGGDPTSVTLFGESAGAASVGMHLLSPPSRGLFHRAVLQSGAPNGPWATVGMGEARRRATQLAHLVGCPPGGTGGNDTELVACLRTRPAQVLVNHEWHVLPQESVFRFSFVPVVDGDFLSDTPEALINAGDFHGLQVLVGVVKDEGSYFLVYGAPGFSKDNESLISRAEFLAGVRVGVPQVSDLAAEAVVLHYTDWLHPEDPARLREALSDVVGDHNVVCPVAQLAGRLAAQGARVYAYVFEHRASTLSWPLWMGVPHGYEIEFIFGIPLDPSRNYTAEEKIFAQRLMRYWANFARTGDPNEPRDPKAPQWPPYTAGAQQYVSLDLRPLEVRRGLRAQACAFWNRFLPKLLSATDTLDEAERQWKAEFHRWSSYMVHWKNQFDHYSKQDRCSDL
Settings: not given
For the molecule `Cc1c(C)c2ccc(OCc3cccc(O)c3)cc2oc1=O`, the IC50 worked out at 3 µM.
In turn, `Cc1c(C)c2ccc(OCc3cc(F)cc(F)c3)cc2oc1=O` came in with an IC50 of 3 µM.
For `Cc1c(C)c2ccc(OCCc3ccccc3)cc2oc1=O`, the IC50 is 3 µM.
On to `Cc1cc(=O)c2cc(Oc3ccccc3)ccc2o1`, for which the IC50 is 3 µM.
For the molecule `Cc1c(C)c2ccc(OCc3cccc(N)c3)cc2oc1=O`, the IC50 was found to be 3 µM.
Regarding `O=c1ccoc2ccc(Oc3ccccc3)cc12`, the IC50 is 3 µM.
In the case of `Cc1c(C)c2ccc(OCc3ccccc3)cc2oc1=O`, the IC50 worked out at 3 µM.
Take `Cc1ccccc1COc1ccc2c(C)c(C)c(=O)oc2c1`: the IC50 is 3 µM.
For `Cc1c(C)c2ccc(OCc3ccc(F)c(F)c3)cc2oc1=O`, the IC50 was 3 µM.

The target of another series is T1, Amine oxidase [flavin-containing] A (Homo sapiens, UniProt P21397).
T1 sequence (P21397 whole entry): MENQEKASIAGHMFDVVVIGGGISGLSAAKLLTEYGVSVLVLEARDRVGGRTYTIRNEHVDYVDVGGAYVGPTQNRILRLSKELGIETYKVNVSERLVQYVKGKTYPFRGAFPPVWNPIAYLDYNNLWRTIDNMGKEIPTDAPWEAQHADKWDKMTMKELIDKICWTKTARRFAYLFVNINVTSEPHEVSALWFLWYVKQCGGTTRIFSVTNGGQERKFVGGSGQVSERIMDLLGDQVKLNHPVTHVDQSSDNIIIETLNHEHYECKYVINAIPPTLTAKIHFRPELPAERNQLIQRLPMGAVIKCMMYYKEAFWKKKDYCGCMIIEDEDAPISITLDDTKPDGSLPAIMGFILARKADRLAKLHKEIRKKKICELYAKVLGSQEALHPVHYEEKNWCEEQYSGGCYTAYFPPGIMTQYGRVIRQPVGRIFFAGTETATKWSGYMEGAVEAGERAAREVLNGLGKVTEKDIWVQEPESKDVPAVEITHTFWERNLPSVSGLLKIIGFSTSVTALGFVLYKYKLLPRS
Briefly: Irreversible inhibition of human recombinant MAO-A.
Settings: not given
In the case of `C#CCN(C)Cc1cccc(C(=O)NC2CC(C)(C)N([O])C(C)(C)C2)c1`, the Ki stood at 268 µM.

The target in another series is T2, Amine oxidase [flavin-containing] B (Homo sapiens, UniProt P27338).
T2 sequence (P27338 whole entry): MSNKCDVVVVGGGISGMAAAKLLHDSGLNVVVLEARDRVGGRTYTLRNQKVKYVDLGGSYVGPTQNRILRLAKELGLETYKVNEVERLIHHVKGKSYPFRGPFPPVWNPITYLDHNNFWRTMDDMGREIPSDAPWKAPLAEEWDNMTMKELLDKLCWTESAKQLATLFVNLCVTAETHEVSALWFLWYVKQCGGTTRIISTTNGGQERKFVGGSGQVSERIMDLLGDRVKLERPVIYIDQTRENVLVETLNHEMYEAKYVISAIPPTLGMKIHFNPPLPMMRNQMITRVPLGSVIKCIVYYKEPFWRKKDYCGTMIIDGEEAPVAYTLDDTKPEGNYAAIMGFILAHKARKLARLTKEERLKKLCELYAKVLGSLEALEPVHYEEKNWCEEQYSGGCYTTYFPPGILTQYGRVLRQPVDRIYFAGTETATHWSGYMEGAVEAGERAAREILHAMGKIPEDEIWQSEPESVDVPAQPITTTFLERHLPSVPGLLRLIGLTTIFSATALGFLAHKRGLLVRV
Briefly: Inhibition of human MAO-B.
Settings: not given
In turn, `OCCn1nnc(-c2ccc(OCc3ccccc3)cc2)n1` showed an IC50 of 0.002 µM.
As to `Oc1ccc(/C=C/c2cc(O)cc3c2[C@@H](c2cc(O)cc(O)c2)C(c2ccc(O)cc2)O3)cc1` (stereo not given in full), the IC50 turned out to be 5 µM.
As to `N#CCCn1nnc(-c2ccc(OCc3cccc(Cl)c3)cc2)n1`, the IC50 amounted to 8 µM.
As to `N#CCCn1nnc(-c2ccc(OCc3ccccc3)cc2)n1`, the IC50 came to 8 µM.
The molecule `OCCn1nnc(-c2ccc(OCc3cccc(Cl)c3)cc2)n1` came in with an IC50 of 0.002 µM.

The target in a further series is T1, Amine oxidase [flavin-containing] A. In words: Inhibition of recombinant human MAO-A using kynuramine as substrate incubated for 20 mins by spectrophotometry analysis.
Settings: not given
Take `COC[C@H]1CN(n2cccc2)C(=O)O1`: the Ki is 4.9 nM.

For another series the target is unchanged. In words: Inhibition of MAO-A (unknown origin).
Settings: not given
On to `C[C@@H]1O[C@@H](Oc2c(-c3ccc(O)c(O)c3)oc3cc(O)cc(O)c3c2=O)[C@H](O)[C@H](O)[C@H]1O` [QUERCITRIN], for which the IC50 stood at 18 µM.
Molecule `C#CCN(C)Cc1ccc[nH]1` yielded a Ki of […].

The target is the same in the next series. Briefly: Inhibition of human recombinant MAO-A.
Settings: not given
As for `CC(=O)Nc1cccc2c1C(=O)c1ccccc1C2=O`, the IC50 was found to be 10 nM.
As to `CC(=O)Nc1ccc2c(c1)S(=O)(=O)c1ccccc1N2C`, the IC50 stood at 10 nM.
Consider `CC(=O)Nc1ccc2c(c1)S(=O)(=O)c1ccccc1C2=O`, for which the IC50 amounted to 10 nM.
Take `CC(=O)Nc1ccc2c(c1)S(=O)(=O)c1ccccc1N2`: the IC50 came to 10 nM.
Consider `O=CN(C=O)c1ccc2c(c1)S(=O)(=O)c1ccccc1C2=O`, for which the IC50 was 10 nM.
As to `CC(=O)Nc1ccc2c(O)c3ccccc3nc2c1`, the IC50 was 10 nM.
As to `CC(=O)Nc1ccc2c(c1)S(=O)(=O)c1cc(NC(C)=O)ccc1N2C`, the IC50 turned out to be 10 nM.
As to `CC(=O)Nc1ccc2c(c1)S(=O)(=O)c1ccccc1O2`, the IC50 was found to be 10 nM.
Same read-out and setting: the value for `CC(=O)Nc1ccc2c(c1)C(=O)c1ccccc1C2=O` was 10 nM.
The same measure, in the same setting: under `CC(=O)Nc1cc2c(cc1NC(C)=O)S(=O)(=O)c1ccccc1C2` stands 10 nM; under `CCCc1ccc2c(c1)S(=O)(=O)c1cc(NC(C)=O)ccc1C2=O`, 10 nM.
On to `CC(=O)Nc1ccc2c(c1)S(=O)(=O)c1cc(C)ccc1C2=O`, for which the IC50 worked out at 10 nM.
On to `CC(=O)Nc1ccc2c(c1)C(=O)c1ccccc1S2(=O)=O`, for which the IC50 was 10 nM.
`CCc1ccc2c(c1)S(=O)(=O)c1cc(NC(C)=O)ccc1C2=O`: the IC50 turned out to be 10 nM.

A further series has as its target T3, Amine oxidase [flavin-containing] A (Rattus norvegicus, UniProt P21396).
T3 sequence (P21396 whole entry): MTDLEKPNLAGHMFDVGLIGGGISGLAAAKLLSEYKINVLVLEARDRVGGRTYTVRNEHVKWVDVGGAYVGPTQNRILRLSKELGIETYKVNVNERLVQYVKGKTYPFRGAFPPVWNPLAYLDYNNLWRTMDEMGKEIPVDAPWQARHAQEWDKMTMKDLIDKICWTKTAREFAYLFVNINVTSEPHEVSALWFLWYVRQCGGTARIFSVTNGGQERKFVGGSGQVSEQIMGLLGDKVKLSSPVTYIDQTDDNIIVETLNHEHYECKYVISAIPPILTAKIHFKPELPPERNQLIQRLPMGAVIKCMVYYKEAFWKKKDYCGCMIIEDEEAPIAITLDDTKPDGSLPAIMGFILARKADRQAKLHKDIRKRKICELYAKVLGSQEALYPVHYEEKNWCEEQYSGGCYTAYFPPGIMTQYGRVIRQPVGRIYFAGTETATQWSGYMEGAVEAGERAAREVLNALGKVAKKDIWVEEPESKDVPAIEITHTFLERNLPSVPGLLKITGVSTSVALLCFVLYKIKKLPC
In words: Inhibition of rat MAO-A.
Settings: not given
Take `O=C1C[C@@H](c2ccc(O)cc2)Oc2cc(O)cc(O)c21` [NARINGENIN]: the IC50 turned out to be 342 µM.

In the next series the target is T1, Amine oxidase [flavin-containing] A. Briefly: Inhibition of human MAO-A using tyramine hydrochloride as substrate preincubated for 30 mins followed by substrate addition and measured for 1 hr by microplate reader method.
Settings: not given
In turn, `O=C(c1cc(O)cc(O)c1)c1c(O[C@@H]2OC[C@@H](O)[C@H](O)[C@H]2O)cc(O)cc1O[C@H]1O[C@@H](CO)[C@H](O)[C@H]1O` yielded an IC50 of 726 µM.
Consider `COc1cc(O)cc(O[C@H]2O[C@@H](CO)[C@H](O)[C@H]2O)c1C(=O)c1cc(O)cc(O)c1`, for which the IC50 is 310 µM.
On the same count and under the same terms, under `O=C(c1cc(O)cc(O)c1)c1c(O)cc(O)cc1O[C@H]1O[C@@H](CO)[C@H](O)[C@H]1O` stands 111 µM.

The next series addresses T2, Amine oxidase [flavin-containing] B. Briefly: Irreversible inhibition of human recombinant MAO-B.
Settings: not given
On to `C#CCN(C)Cc1ccc(C(=O)NC2CC(C)(C)N([O])C(C)(C)C2)cc1`, for which the Ki was 15 µM.

A further series deals with T3, Amine oxidase [flavin-containing] A. In words: In vivo inhibition of MAO-A in Wistar rat with assessed as decrease in MAO activity in […] at 10 to 30 mg/kg, ip measured after 2 hrs. As to conditions: dose 10-30 mg/kg. Format: functional, organism-based. On the set-up: scale not given: the % may be the effect or the level left.
`C[C@]12CC[C@H](O)CC1=CC[C@@H]1[C@@H]2CC[C@]2(C)C(=O)CC[C@@H]12` [PRASTERONE]: the Activity was -24%.

For the next series, the target named is T2, Amine oxidase [flavin-containing] B. In words: Inhibition of MAO-B (unknown origin).
Settings: not given
Regarding `NS(=O)(=O)Cc1noc2ccccc12` [ZONISAMIDE], the Ki was determined as 30.8 µM.

The series is the same for the next values; noted with them: read-out: IC50.
As to `COc1ccc(/C(=C\F)CN)cc1OC`, the IC50 is 10 nM.

The same series, now with this note: read-out: pIC50 (converted).
Regarding `C/C(=C\COc1ccc2ccc(=O)oc2c1)C1=CC(=O)C(C)(C)O1` [GEIPARVARIN], the IC50 is 24000 nM.
In the case of `O=c1oc2ccc(Cl)cc2cc1Cl`, the IC50 was 10 nM.

The next series has as its target T1, Amine oxidase [flavin-containing] A. Briefly: Inhibition of MAO-A (unknown origin) incubated for 60 mins by fluorometric spectrophotometry analysis.
Settings: not given
Turning to `C[C@@H]1O[C@@H](OC[C@H]2O[C@@H](Oc3c(-c4ccc(O)c(O)c4)oc4cc(O)cc(O)c4c3=O)[C@H](O)[C@@H](O)[C@@H]2O)[C@H](O)[C@H](O)[C@H]1O` [RUTIN], the IC50 was 3.89 µM.
Take `O=c1c(O[C@@H]2O[C@H](CO)[C@@H](O)[C@H](O)[C@H]2O)c(-c2ccc(O)c(O)c2)oc2cc(O)cc(O)c12` [ISOQUERCETIN]: the IC50 was determined as 19.1 µM.
On the same count and under the same terms, under `O=c1c(O)c(-c2ccc(O)c(O)c2)oc2cc(O)cc(O)c12` [QUERCETIN] stands 11.6 µM and 10.9 µM.
